Patent US12012392B2, “Sulfonamide carboxamide compounds” (Inflazome Limited, priority 2017, dated 2024)
Where a name gives a salt, the structure may show the parent alone.

Tests used:
[1] = biological target: T1, NLRP3 (Homo sapiens, UniProt Q96P20); experiment: Human whole blood IL1β release assay; assay type: cell-based; parameters: Plate out 80 μl of whole blood containing 1 μg/ml of LPS; from tissue; host or cells: human whole blood from healthy donors, LPS-primed, nigericin-stimulated; conditions: LPS 1 μg/ml, nigericin 10 μM, IL-1β AlphaLisa, read-out: HWB IC50
T1 sequence (Q96P20 whole entry): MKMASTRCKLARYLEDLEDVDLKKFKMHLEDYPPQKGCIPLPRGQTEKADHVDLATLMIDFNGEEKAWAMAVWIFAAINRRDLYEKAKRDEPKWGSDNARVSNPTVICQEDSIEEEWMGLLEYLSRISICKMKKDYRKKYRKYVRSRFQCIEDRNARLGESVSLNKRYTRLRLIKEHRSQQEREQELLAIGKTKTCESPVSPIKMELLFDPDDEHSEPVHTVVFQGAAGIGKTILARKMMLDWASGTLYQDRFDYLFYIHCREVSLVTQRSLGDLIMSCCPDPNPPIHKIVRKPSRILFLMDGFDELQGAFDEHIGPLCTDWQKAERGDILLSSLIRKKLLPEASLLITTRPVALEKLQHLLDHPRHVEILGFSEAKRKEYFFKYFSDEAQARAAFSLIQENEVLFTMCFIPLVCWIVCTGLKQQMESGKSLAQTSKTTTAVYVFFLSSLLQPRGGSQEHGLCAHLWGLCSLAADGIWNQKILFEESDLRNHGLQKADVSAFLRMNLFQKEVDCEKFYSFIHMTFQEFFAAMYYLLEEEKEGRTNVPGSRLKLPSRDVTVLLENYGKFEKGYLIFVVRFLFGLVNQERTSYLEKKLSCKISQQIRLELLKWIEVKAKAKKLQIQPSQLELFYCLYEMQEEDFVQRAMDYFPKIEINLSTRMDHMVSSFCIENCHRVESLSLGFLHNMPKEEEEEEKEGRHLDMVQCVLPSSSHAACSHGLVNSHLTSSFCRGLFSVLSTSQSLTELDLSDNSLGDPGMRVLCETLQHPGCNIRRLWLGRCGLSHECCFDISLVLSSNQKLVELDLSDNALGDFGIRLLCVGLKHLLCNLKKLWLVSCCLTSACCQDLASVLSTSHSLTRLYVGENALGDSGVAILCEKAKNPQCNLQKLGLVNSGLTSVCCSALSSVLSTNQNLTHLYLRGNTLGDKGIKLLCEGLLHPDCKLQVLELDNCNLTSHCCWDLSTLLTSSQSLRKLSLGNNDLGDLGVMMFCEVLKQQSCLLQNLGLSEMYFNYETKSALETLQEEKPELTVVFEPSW
Method: For systemic delivery, the ability to inhibit NLRP3 when the compounds are present within the bloodstream is of great importance. For this reason, the NLRP3 inhibitory activity of a number of compounds in human whole blood was investigated in accordance with the following protocol.
Human whole blood in Li-heparin tubes was obtained from healthy donors from a volunteer donor panel. • 1. Plate out 80 μl of whole blood containing 1 μg/ml of LPS in 96-well, clear bottom cell culture plate (Corning #3585) • 2. Add […] compound (8 points half-log dilution with 10 μM top dose) or vehicle (DMSO 0.1% FAC) to the appropriate wells • 3. Incubate for 3 hrs at 37° C., 5% CO2 • 4. Add 10 μl Nigericin (Sigma #N7143) (10 μM FAC) to all wells • 5. Incubate for 1 hr at 37° C., 5 CO2 • 6. At the end of the incubation period, spin plates at 300×g for 5 mins to pellet cells and remove 20 μl of supernatant and add to 96-well v-bottom plates for […] analysis (note: these plates containing the supernatants can be stored at −80° C. to be analysed at a later date) • 7. IL-1β was measured according to the manufacturer protocol (Perkin Elmer-AlphaLisa IL-1 Kit AL220F-5000) • 8. IC50 data is fitted to anon-linear regression equation (log inhibitor vs response-variable slope 4-parameters)

[2] = biological target: T1, NLRP3; experiment: THP-1 cells pyroptosis assay; assay type: cell-based; parameters: Seed THP-1 cells (25,000 cells/well) containing 1.0 μg/ml LPS; host or cells: THP-1 cells, LPS-primed, nigericin-stimulated; conditions: LPS 1 μg/ml, nigericin 5 μM, resazurin read-out
Method: THP-1 cells (ATCC #TIB-202) were grown in RPMI containing L-glutamine (Gibco #11835) supplemented with 1 mM sodium pyruvate (Sigma #S8636) and penicillin (100 units/ml)/streptomycin (0.1 mg/ml) (Sigma #P4333) in 10% Fetal Bovine Serum (FBS) (Sigma #F0804). The cells were routinely passaged and grown to confluency (˜10^6 cells/ml). On the day of the experiment, THP-1 cells were harvested and resuspended into RPMI medium (without FBS). The cells were then counted and viability (>90%) checked by Trypan blue (Sigma #T8154). Appropriate dilutions were made to give a concentration of 625,000 cells/ml. To this diluted cell solution was added LPS (Sigma #L4524) to give a 1 μg/ml Final Assay Concentration (FAC). 40 μl of the final preparation was aliquoted into each well of a 96-well plate. The plate thus prepared was used for compound screening.
The following method step-by-step assay was followed for compound screening. • 1. Seed THP-1 cells (25,000 cells/well) containing 1.0 μg/ml LPS in 40 μl of RPMI medium (without FBS) in 96-well, black walled, clear bottom cell culture plates coated with poly-D-lysine (VWR #734-0317) • 2. Add 5 μl compound (8 points half-log dilution, with 10 μM top dose) or vehicle (DMSO 0.1% FAC) to the appropriate wells • 3. Incubate for 3 hrs at 37° C. and 5% CO2 • 4. Add 5 μl nigericin (Sigma #N7143) (FAC 5 μM) to all wells • 5. Incubate for 1 hr at 37° C. and 5% CO2 • 6. At the end of the incubation period, spin plates at 300×g for 3 mins and remove supernatant • 7. Then add 50 μl of resazurin (Sigma #R7017) (FAC 100 μM resazurin in RPMI medium without FBS) and incubate plates for a further 1-2 hrs at 37° C. and 5% CO2 • 8. Plates were read in an Envision reader at Ex 560 nm and Em 590 nm • 9. IC50 data is fitted to a non-linear regression equation (log inhibitor vs response-variable slope 4-parameters) 96-Well Plate Map

SMILES	IC50 [1] [nM]	IC50 [2] [nM]
CC(C)(CO)n1ccc(S(=O)(=O)NC(=O)Nc2c3c(cc4c2CCC4)CCC3)n1 [Example 20, N-((1,2,3,5,6,7-Hexahydro-s-indacen-4-yl)carbamoyl)-1-(1-hydroxy-2-methylpropan-2-yl)-1H-pyrazole-3-sulfonamide]	800 to 1600	40 to 160
Cn1nc(S(=O)(=O)NC(=O)Nc2c3c(cc4c2CCC4)CCC3)cc1C(=O)N(CCO)CCO [Example 61, 3-(N-((1,2,3,5,6,7-Hexahydro-s-indacen-4-yl)carbamoyl)sulfamoyl)-N,N-bis(2-hydroxyethyl)-1-methyl-1H-pyrazole-5-carboxamide]	< 400	160 to 640
O=C(Nc1c2c(cc3c1CCC3)CCC2)NS(=O)(=O)c1ccn(C[C@@H](O)CO)n1 [Example 104]	800 to 1600	160 to 640
COc1cc(-c2ccc3c(c2NC(=O)NS(=O)(=O)c2ccn(C4CCOC4)n2)CCC3)ccn1 (stereo not drawn) [Example 97]	< 400	40 to 160
C[C@@H](O)Cn1cnc(S(=O)(=O)NC(=O)Nc2c3c(cc4c2CCC4)CCC3)n1 [Example 36, (R)—N-((1,2,3,5,6,7-Hexahydro-s-indacen-4-yl)carbamoyl)-1-(2-hydroxypropyl)-1H-1,2,4-triazole-3-sulfonamide]	400 to 800	160 to 640
CC(C)(O)Cn1ccc(S(=O)(=O)NC(=O)Nc2c3c(c(F)c4c2CCC4)CCC3)n1 [Example 106]	400 to 800	< 40
O=C(Nc1c2c(cc3c1CCC3)CCC2)NS(=O)(=O)c1ccn(CC(O)C(F)(F)F)n1 (stereo not drawn) [Example 30, N-((1,2,3,5,6,7-Hexahydro-s-indacen-4-yl)carbamoyl)-1-(3,3,3-trifluoro-2-hydroxypropyl)-1H-pyrazole-3-sulfonamide]	800 to 1600	40 to 160
CC[C@H](O)Cn1ccc(S(=O)(=O)NC(=O)Nc2c3c(cc4c2CCC4)CCC3)n1 [Example 21, (S)—N-((1,2,3,5,6,7-Hexahydro-s-indacen-4-yl)carbamoyl)-1-(2-hydroxybutyl)-1H-pyrazole-3-sulfonamide]	800 to 1600	40 to 160
C[C@@H](CO)n1ccc(S(=O)(=O)NC(=O)Nc2c3c(cc4c2CCC4)CCC3)n1 [Example 15, (S)—N-((1,2,3,5,6,7-Hexahydro-s-indacen-4-yl)carbamoyl)-1-(1-hydroxypropan-2-yl)-1H-pyrazole-3-sulfonamide]	800 to 1600	40 to 160
C[C@@H](O)Cn1ccc(S(=O)(=O)NC(=O)Nc2c(-c3ccnc(C#N)c3)ccc3c2CCC3)n1 [Example 92]	< 400	< 40
CC(C)(O)Cn1ccc(S(=O)(=O)NC(=O)Nc2c(-c3ccnc(C#N)c3)ccc3c2CCC3)n1 [Example 93]	< 400	< 40
CC(C)c1cc(Cl)cc(C(C)C)c1NC(=O)NS(=O)(=O)c1cc(C(=O)N(C)CCO)n(C)n1 [Example 82, 3-(N-((4-Chloro-2,6-diisopropylphenyl)carbamoyl)sulfamoyl)-N-(2-hydroxyethyl)-N,1-dimethyl-1H-pyrazole-5-carboxamide]	800 to 1600	40 to 160
COC(C)(C)Cn1ccc(S(=O)(=O)NC(=O)Nc2c(C(C)C)cc(F)cc2C(C)C)n1 [Example 17, N-((4-Fluoro-2,6-diisopropylphenyl)carbamoyl)-1-(2-methoxy-2-methylpropyl)-1H-pyrazole-3-sulfonamide]	3200 to 10000	640 to 2560
O=C(Nc1c2c(cc3c1CCC3)CCC2)NS(=O)(=O)c1ccn(CC2CCCO2)n1 (single isomer, unassigned) [Example 4]	3200 to 10000	40 to 160

Next, values leading:

IC50 [1] [nM]	IC50 [2] [nM]	SMILES
1600 to 3200	40 to 160	COC1(c2cc(S(=O)(=O)NC(=O)Nc3c4c(cc5c3CCC5)CCC4)nn2C(C)(C)C)COC1 [Example 39, 1-(tert-Butyl)-N-((1,2,3,5,6,7-hexahydro-s-indacen-4-yl)carbamoyl)-5-(3-methoxyoxetan-3-yl)-1H-pyrazole-3-sulfonamide]
< 400	40 to 160	O=C(Nc1c2c(cc3c1CCC3)CCC2)NS(=O)(=O)c1ccn(CCO)n1 [Example 8, N-((1,2,3,5,6,7-Hexahydro-s-indacen-4-yl)carbamoyl)-1-(2-hydroxyethyl)-1H-pyrazole-3-sulfonamide]
400 to 800	40 to 160	CC(C)n1nc(S(=O)(=O)NC(=O)Nc2c3c(cc4c2CCC4)CCC3)cc1C1(O)COC1 [Example 47, N-((1,2,3,5,6,7-Hexahydro-s-indacen-4-yl)carbamoyl)-5-(3-hydroxyoxetan-3-yl)-1-isopropyl-1H-pyrazole-3-sulfonamide]
1600 to 3200	160 to 640	O=C(Nc1c2c(cc3c1CCC3)CCC2)NS(=O)(=O)c1ccn(C2CCOCC2)n1 [Example 31, N-((1,2,3,5,6,7-Hexahydro-s-indacen-4-yl)carbamoyl)-1-(tetrahydro-2H-pyran-4-yl)-1H-pyrazole-3-sulfonamide]
400 to 800	40 to 160	CCOC1(c2cc(S(=O)(=O)NC(=O)Nc3c4c(cc5c3CCC5)CCC4)nn2C)COC1 [Example 41, 5-(3-Ethoxyoxetan-3-yl)-N-((1,2,3,5,6,7-hexahydro-s-indacen-4-yl)carbamoyl)-1-methyl-1H-pyrazole-3-sulfonamide]
800 to 1600	40 to 160	O=C(Nc1c2c(cc3c1CCC3)CCC2)NS(=O)(=O)c1ccn(CC2CCOC2)n1 (stereo not drawn) [Example 6, N-((1,2,3,5,6,7-Hexahydro-s-indacen-4-yl)carbamoyl)-1-((tetrahydrofuran-3-yl)methyl)-1H-pyrazole-3-sulfonamide]
3200 to 10000	640 to 2560	CC1(Cn2ccc(S(=O)(=O)NC(=O)Nc3c4c(cc5c3CCC5)CCC4)n2)COC1 [Example 9, N-((1,2,3,5,6,7-Hexahydro-s-indacen-4-yl)carbamoyl)-1-((3-methyloxetan-3-yl)methyl)-1H-pyrazole-3-sulfonamide, partial ammonium salt]
